Assay results published in ChEMBL document CHEMBL4651402, “Screening of ~5500 FDA-approved drugs and clinical candidates for anti-SARS-CoV-2 activity” (2021).

Tested on: SARS-CoV-2
Assay: microbe, parasite or virus in culture
Settings: Severe acute respiratory syndrome coronavirus 2, Vero C1008, 48 h

| SMILES | IC50 | IC50 (read-out: pIC50 (converted)) |
| --- | --- | --- |
| COc1c(N2CCC/C(=C(/F)CN)C2)c(F)cc2c(=O)c(C(=O)O)cn(C3CC3)c12 | > 20 µM | > 20 µM |
| C=CCC1(C(C)CCC)C(=O)NC(=S)NC1=O (stereo not given) [THIAMYLAL] | > 20 µM | > 20 µM |
| Oc1ccc(Cl)c2c1CCC2 [CHLORINDANOL] | > 20 µM | > 20 µM |
| Cn1nnc(-c2ccc(-c3ccc(N4C[C@H](COP(=O)(O)O)OC4=O)cc3F)cn2)n1 [TEDIZOLID PHOSPHATE] | > 20 µM | > 20 µM |
| CCOC(=O)C1=C(CN2CCOCC2)NC(c2nccs2)=N[C@@H]1c1ccc(F)cc1Br | > 20 µM | > 20 µM |
| CC(C)[N@+]1(C)C2CC[C@H]1C[C@@H](OC(=O)C(CO)c1ccccc1)C2 (stereo not given in full) | > 20 µM | > 20 µM |
| O=C(O)CCC(=O)O [SUCCINIC ACID] | > 20 µM | > 20 µM |
| COCCCOc1cc(C[C@@H](C[C@H](N)[C@@H](O)C[C@H](C(=O)NCC(C)(C)C(N)=O)C(C)C)C(C)C)ccc1OC | > 20 µM | > 20 µM |
| CCC(c1ccccc1)c1c(O)c2ccccc2oc1=O (stereo not given) [PHENPROCOUMON] | > 20 µM | > 20 µM |
| CC(C)N(CCC(C(N)=O)(c1ccccc1)c1ccccn1)C(C)C (stereo not given) [DISOPYRAMIDE] | > 20 µM | > 20 µM |
| O=c1cc(-c2ccccc2)oc2cc(O)cc(O)c12 [CHRYSIN] | > 20 µM | > 20 µM |
| CC(C)OC(=O)OCOP(=O)(CO[C@H](C)Cn1cnc2c(N)ncnc21)OCOC(=O)OC(C)C [TENOFOVIR DISOPROXIL] | > 20 µM | > 20 µM |
| CC12C=CC(=O)C=C1CCC1C2CCC2(C)C(O)CCC12 (stereo not given) | > 20 µM | > 20 µM |
| CCN(CCCc1ccccc1)CCCc1ccccc1 [ALVERINE] | > 20 µM | > 20 µM |
| CN(C)CCOC(c1ccccc1)c1ccccc1.Cn1c(=O)c2[nH]c(Cl)nc2n(C)c1=O [DIMENHYDRINATE] | > 20 µM | > 20 µM |
| CO[C@H]1C[C@@H]2CC[C@@H](C)[C@@](O)(O2)C(=O)C(=O)N2CCCC[C@H]2C(=O)O[C@H]([C@H](C)C[C@@H]2CC[C@@H](O)[C@H](OC)C2)CC(=O)[C@H](C)/C=C(\C)[C@@H](O)[C@@H](OC)C(=O)[C@H](C)C[C@H](C)/C=C/C=C/C=C/1C [SIROLIMUS] | > 20 µM | > 20 µM |
| CC(CN1c2ccccc2Sc2ccc(S(=O)(=O)N(C)C)cc21)N(C)C (stereo not given) [FONAZINE] | > 20 µM | > 20 µM |
| CC(=O)/C=C(\C)NCCN/C(C)=C/C(C)=O | > 20 µM | > 20 µM |
| N[C@@H](Cc1ccccc1)C(=O)O [PHENYLALANINE] | > 20 µM | > 20 µM |
| O=c1ncn2nc(Sc3ccc(F)cc3F)ccc2c1-c1c(Cl)cccc1Cl [NEFLAMAPIMOD] | > 20 µM | > 20 µM |
| OC[C@@H](O)[C@H]1O[C@@H]2O[C@H](C(Cl)(Cl)Cl)O[C@@H]2[C@H]1O [CHLORALOSE] | > 20 µM | > 20 µM |
| CN(C)CCOc1ccc2c(=O)c3ccc(OCCN(C)C)cc3oc2c1 | > 20 µM | > 20 µM |
| CCOC(=O)C1=C(CN2CCOCC2)NC(c2nccs2)=N[C@H]1c1ccc(F)cc1Br | > 20 µM | > 20 µM |
| O=C(Nc1ccc(Cl)c(Cl)c1)C1=C(O)c2cc(Cl)ccc2S(=O)(=O)CC1 [ENOLICAM] | > 20 µM | > 20 µM |

| SMILES | IC50 | IC50 (read-out: pIC50 (converted)) |
| --- | --- | --- |
| CCN1CCN(c2cc3c(cc2F)c(=O)c(C(=O)O)cn3C2CC2)CC1 [ENROFLOXACIN] | > 20 µM | > 20 µM |
| CO[C@@H](C(=O)N1Cc2[nH]nc(NC(=O)c3ccc(N4CCN(C)CC4)cc3)c2C1)c1ccccc1 [DANUSERTIB] | > 20 µM | > 20 µM |
| N#CCCCSC(=N)N [4-ISOTHIOUREIDOBUTYRONITRILE] | > 20 µM | > 20 µM |
| CN(C)C(=N)NC(=N)N [METFORMIN] | > 20 µM | > 20 µM |
| NC1=NCC(c2ccccc2)O1 (stereo not given) [AMINOREX] | > 100 µM | > 100 µM |
| NC(=O)C1CC2(NC(=O)NC2=O)c2cc(F)ccc2O1 (stereo not given) | > 20 µM | > 20 µM |
| COc1c(OC)c(OC(C)=O)c2cc(Cl)ccc2c1OC(C)=O [LONAPALENE] | > 20 µM | > 20 µM |
| CCCCC[C@H](O)/C=C/[C@H]1[C@H](O)CC(=O)[C@@H]1CCCCCCC(=O)O [ALPROSTADIL] | > 20 µM | > 20 µM |
| COC(=O)/C(=C1/OC(=O)C(c2ccccc2)=C1O)c1ccccc1 [VULPINIC ACID] | > 20 µM | > 20 µM |
| CN1CCN(c2c(F)cc3c(=O)c(C(=O)O)cn4c3c2OCN4C)CC1 [MARBOFLOXACIN] | > 20 µM | > 20 µM |
| Cc1nc2cccc(N)c2c(=O)n1C1CCC(=O)NC1=O (stereo not given) [AVADOMIDE] | > 20 µM | > 20 µM |
| CC(=O)c1ccc(C)cc1N[C@H](C(N)=O)c1c(Cl)cccc1Cl | > 20 µM | > 20 µM |
| CCCCCCCCCCC(C)(C)C(=O)Nc1c(OC)cc(OC)cc1OC [CL-976] | > 20 µM | > 20 µM |
| NC(=O)NC(CC(=O)O)C(=O)O (stereo not given) | > 20 µM | > 20 µM |
| Cc1nccc2c1[nH]c1ccccc12 [HARMAN] | > 20 µM | > 20 µM |
| C=CCN1CCC23c4c5ccc(O)c4OC2C(O)C=CC3C1C5 (stereo not given) | > 20 µM | > 20 µM |
| O=C1C(O)=C([C@H]2CC[C@H](c3ccc(Cl)cc3)CC2)C(=O)c2ccccc21 [ATOVAQUONE] | > 20 µM | > 20 µM |
| C/C1=C/C[C@@H](/C(C)=C/c2csc(C)n2)OC(=O)C[C@H](O)C(C)(C)C(=O)[C@H](C)[C@@H](O)[C@@H](C)CCC1 [EPOTHILONE D] | > 20 µM | > 20 µM |
| O=C1Nc2ccc(Cl)cc2C(/C=C/C2CC2)(C(F)(F)F)N1 (stereo not given) | > 20 µM | > 20 µM |
| COc1ccc(C(=O)NCc2ccc(OCCN(C)C)cc2)cc1OC [ITOPRIDE] | > 20 µM | > 20 µM |
| COc1c(C)c2c(c(O)c1C/C=C(\C)CCC(=O)O)C(=O)OC2 [MYCOPHENOLIC ACID] | > 20 µM | > 20 µM |
| CC(=O)N[C@H]1C[C@H]2CC[C@@H](C1)N2Cc1ccc(Oc2nc3ncccc3s2)cc1 | > 20 µM | > 20 µM |
| Cc1ccc(N(CC2=NCCN2)c2cccc(O)c2)cc1 [PHENTOLAMINE] | > 20 µM | > 20 µM |
| CCn1ccc(NS(=O)(=O)c2ccc(N)cc2)nc1=O [SULFACYTINE] | > 20 µM | > 20 µM |

| SMILES | IC50 | IC50 (read-out: pIC50 (converted)) |
| --- | --- | --- |
| O=C1CN(/N=C/c2ccc(-c3ccc([N+](=O)[O-])cc3)o2)C(=O)N1 [DANTROLENE] | > 20 µM | > 20 µM |
| C[C@]12CC[C@H](O)C[C@@H]1CC[C@@H]1C2CC[C@]2(C)[C@@H](C3=CC(=O)OC3)CC[C@]12O (stereo not given in full) | > 20 µM | > 20 µM |
| C=C[C@@]1(C)CC(=O)[C@@]2(O)[C@](C)(O1)[C@@H](OC(C)=O)[C@@H](OC(=O)CCN(C)C)C1C(C)(C)CC[C@H](O)[C@@]12C (stereo not given in full) | > 20 µM | > 20 µM |
| COc1nc2ccc(Br)cc2cc1[C@@H](c1ccccc1)[C@@](O)(CCN(C)C)c1cccc2ccccc12 [BEDAQUILINE] | > 20 µM | > 20 µM |
| CO[C@H]1/C=C\O[C@@]2(C)Oc3c(C)c(O)c4c(O)c(c(/C=N/N5CCN(C6CCCC6)CC5)c(O)c4c3C2=O)NC(=O)/C(C)=C\C=C/[C@H](C)[C@H](O)[C@@H](C)[C@@H](O)[C@@H](C)[C@H](OC(C)=O)[C@@H]1C | > 20 µM | > 20 µM |
| CCN(CC)CCNC(=O)COc1ccc(OC)cc1 [MEFEXAMIDE] | > 20 µM | > 20 µM |
| COc1ccc(C(=O)/C=C/c2ccccc2)cc1 [4'-METHOXYCHALCONE] | > 20 µM | > 20 µM |
| O=C(CNC(=O)c1cccc(C(F)(F)F)c1)NC1CN([C@H]2CC[C@@](O)(c3cncs3)CC2)C1 [JNJ-41443532] | > 20 µM | > 20 µM |
| N#CC[C@H](C1CCCC1)n1cc(-c2ncnc3[nH]ccc23)cn1 [RUXOLITINIB] | > 20 µM | > 20 µM |
| CN1CCN(C2=Cc3cc(Cl)ccc3/C(=C/C#N)c3ccccc32)CC1 [RILAPINE] | > 20 µM | > 20 µM |
| CC(O)c1cc(C(=O)N[C@@H](C)Cn2ccc(-c3ccc(C#N)c(Cl)c3)n2)n[nH]1 (stereo not given in full) [DAROLUTAMIDE] | > 20 µM | > 20 µM |
| O=C1c2ccccc2-c2c1c1ccccc1c(=O)n2CCNCCO | > 20 µM | > 20 µM |
| C[C@@H]1CC[C@H]2[C@@H](C)C(=O)O[C@@H]3O[C@@]4(C)CC[C@@H]1[C@]32OO4 [ARTEMISININ] | > 20 µM | > 20 µM |
| C/C=C/C[C@@H](C)[C@@H](O)[C@H]1C(=O)N[C@@H](CC)C(=O)N(C)CC(=O)N(C)[C@@H]([C@@H](C)CC)C(=O)N[C@@H](C(C)C)C(=O)N(C)[C@@H](CC(C)C)C(=O)N[C@@H](C)C(=O)N[C@H](C)C(=O)N(C)[C@@H](CC(C)C)C(=O)N(C)[C@@H](CC(C)C)C(=O)N(C)[C@@H](C(C)C)C(=O)N1C [NIM811] | > 20 µM | > 20 µM |
| CCN(CC)CCNC(=O)c1cc(Br)c(N)cc1OC [BROMOPRIDE] | > 20 µM | > 20 µM |
| C=C[C@@H]1C[C@]1(NC(=O)[C@@H]1C[C@@H]2CN1C(=O)[C@H](C(C)(C)C)NC(=O)O[C@@H]1C[C@H]1CCCCCc1nc3ccc(OC)cc3nc1O2)C(=O)NS(=O)(=O)C1CC1 [GRAZOPREVIR ANHYDROUS] | > 20 µM | > 20 µM |
| O=C1Nc2ccc(Cl)cc2[C@](C#CC2CC2)(C(F)(F)F)O1 | > 20 µM | > 20 µM |
| O=C(c1ccc(Cl)cc1)n1cc(Cc2nnn[nH]2)c2ccccc21 [INTRAZOLE] | > 20 µM | > 20 µM |
| NC(=O)CN1Cc2ccccc2OC1=O [CAROXAZONE] | > 20 µM | > 20 µM |
| C[N+]12CCC34c5ccccc5N5C(=O)CC6OCC=C(C1)C(CC32)C6C54 (stereo not given) | > 20 µM | > 20 µM |
| CC(=O)NS(=O)(=O)c1ccc(NC(=O)c2ccccc2C(=O)O)cc1 | > 20 µM | > 20 µM |
| Cc1ncc(-c2csc(N=C(N)N)n2)[nH]1 [ZALTIDINE] | > 20 µM | > 20 µM |
